Assays:
[1] = test system: TNFα; test: TNFα protein in brain of HD mouse model R6/2; format: in vivo; settings: R6/2 mice, daily i.p. 50 mg/kg, 4 weeks
Protocol: To assess protein levels, cell extracts were prepared from cells washed with PBS and lysed with buffer containing 2% SDS, Complete EDTA-free Protease Inhibitor Cocktail (Roche) and 1 mM phenylmethylsulfonyl fluoride. To prepare brain extracts for analysis, frozen mouse cortical tissues were homogenized in PBS containing protease inhibitors with an Kontes Pellet Pestle (Kimble/Kontes). They were later sonicated and lysed overnight at 4° C. in 2× volume of lysis buffer containing 2% SDS and protease inhibitors. Protein concentrations in ST14A cell extracts and homogenized cortical tissues were evaluated using a BCA analysis kit and normalized. Samples were prepared in a SDS buffer containing DTT and separated on bis-acrylamide protein gels via electrophoresis and transferred onto a 0.2 μm PVDF membrane). […]
For this animal trial, the well-characterized transgenic R6/2 mouse model of HD was selected, in which severe neurological phenotypes and premature death at age of 12-13 week is conferred by expression of a human HTT exon 1 fragment containing a pathological ˜150Q repeat tract (Mangiarini et al., 1996). […] Body weights were recorded weekly at the same time of day. At 10 weeks of age, mice were sacrificed 2 hrs after the last injection; brains were removed and snap frozen in liquid nitrogen and kept frozen at −80° C. until analyzed. […]

[2] = test system: primary neurons from HD140CAG mice; test: ROS detection assay in primary neurons; format: cell-based, mouse; settings: 0.1 μM and 0.25 μM, 4 days
Protocol: Elevated levels of reactive oxygen species (ROS) have been implicated in normal brain aging and in the pathogenesis of numerous neurodegenerative diseases, including HD. The neuroprotective properties of NRF2 activation have been reported to boost antioxidant defenses in astrocytes, but in this study it was determined whether NRF2 induction mediates protective antioxidant activity in mutant Htt expressing primary neurons. It was determined whether NRF2 activation could reduce mHtt associated ROS in primary neurons isolated from embryonic brains (E15-E17) of HD140CAG mice, which display strikingly elevated ROS levels compared to cells derived from wild type mice. HD and wild type neurons were treated with MIND4-17 at 0.1 μM and 0.25 μM doses for 4 days, and ROS were measured.
ROS detection in primary neurons was performed as previously described by [Valencia, 2013]. Briefly, neurons were plated on glass coverslips pretreated with poly-L-lysine for 24 hours. At 4 DIV wild type and HDQ140 neurons were treated with compound MIND4-17 at 4 DIV, then ROS were measured in live cells at 8 DIV. Prior to ROS measurements, neurons were loaded with […] of the non-fluorescent ROS-detector carboxy-DCFDA-AM (Invitrogen) for 15 min at 37° C. […] Images were acquired through a 60× oil immersion Nikon Apo objective DIC H (NA 1/4 1.4) and quantified using ImageJ software (NIH).

Compound	TNFα protein levels in cortical extracts [1]	Basal ROS levels in wild type neurons [2]	ROS levels in HD neurons [2]
O=[N+]([O-])c1ccc(Sc2nnc(COc3ccccc3)n2-c2ccccc2)c2ncccc12 [MIND4, 5-nitro-8-{[5-(phenoxymethyl)-4-phenyl-4H-1,2,4-triazol-3-yl]thio}quinoline]	striking reduction of TNFα	–	–
O=[N+]([O-])c1ccc(Sc2nnc(COc3ccccc3)n2-c2ccccc2)nc1 [MIND4-17]	–	No effects on basal ROS levels were detected	significant reduction of ROS

Reference: US9737525B2, “Small molecule activators of NRF2 pathway” (The General Hospital Corporation, priority 2013, dated 2017)
